According to patent US8436007B2, “Inhibitors of protein kinases” (Ingenium Pharmaceuticals GmbH, priority 2007, dated 2013):
“Also recorded” adds a separate entry of the source.

What was measured:
[1] = system: TNFα expression in LPS induced THP-1 macrophages; experiment: In vitro THP-1 assay: TNFα expression in LPS-induced THP-1 macrophages (ELISA of supernatant); assay type: cell-based, human; details: differentiated THP-1 cells, 60 min pre-incubation with compound (0.5 to 5 μM), 100 ng/ml LPS for 4-48 h, triplicates
Method: (§1) The human THP-1 cell line can be utilized as an in vitro model of cytokine expression as mediated by Lipopolysaccharide (LPS) or Tumor Necrosis Factorα [TNFα]. Monocytic THP-1 cells (ATCC; TIB-202) can be differentiated into macrophage-like cells expressing pro-inflammatory cytokines like TNFα, IL6 and IL1β upon induction with LPS or by TNFα (autocrine induction) itself. THP-1 cells are grown in modified RPMI-1640 medium (ATCC, Cat. No. 30-2001) supplemented with 10% FCS and 1% Pen/Strep. For cytokine inhibition assays, cells are seeded at a density of 5×10^5 cells/ml into 6-well plates in standard growth medium supplemented with 100 ng/ml PMA (Sigma, P1585) to induce differentiation into macrophage-like cells. After 24 hours, the medium is replaced with standard growth medium (without PMA) and the cells are incubated for another 48 hours to complete differentiation. After 72 h of differentiation, the medium is replaced with serum free growth medium, and CDK-inhibiting compounds as well as reference compounds such as positive and negative controls, each dissolved in DMSO are added at concentrations ranging from 0.5 to 5 μM (final concentration of DMSO in the well is 0.1%). Cells are incubated for 60 min with compounds prior to stimulation with 100 ng/ml LPS (Sigma, L2630) for another 4-48 hours. Supernatants are collected and assayed immediately for cytokine expression, e.g. for TNFα, IL-6 and IL-1b using commercially available sandwich ELISA assays (eBioscience, Cat. No 88-7346, 88-7066, 88-7010) or kept frozen at […] until evaluation. Concentrations of TNFα, IL6 and IL1β within the cell culture supernatants are measured by using commercial ELISA Kits (eBioscience) according to the manufacturers' instructions. CDK-inhibitory compounds #1, 5, 6, 8, and 9 were administered at to differentiated THP-1 cells in triplicates as described above (see section 2.). After 60 min of pre-incubation with test or reference compound (SB203580, a p38 inhibitor and BMS345541, an IKK-inhibitor) alone, cells were stimulated with LPS. After incubation for 4-48 h, supernatants were collected and ELISA based determinations of cytokine supernatant concentrations were performed as described in section 3, supra.

[2] = system: IL6 expression in LPS induced THP-1 macrophages; experiment: In vitro THP-1 assay: IL6 expression in LPS-induced THP-1 macrophages (ELISA of supernatant); assay type: cell-based, human; details: differentiated THP-1 cells, 60 min pre-incubation with compound (0.5 to 5 μM), 100 ng/ml LPS for 4-48 h, triplicates
Method: as §1

SMILES	inhibition of TNFα expression / protein concentration in the cell supernatant compared to vehicle (DMSO) [1]	inhibition of IL6 protein concentration in the cell supernatant compared to vehicle (DMSO) [2]
COc1ccccc1-c1ccnc(Nc2cccc(CS(N)(=O)=O)c2)n1 [Compound 1, {3-[4-(2-Methoxy-phenyl)-pyrimidin-2-ylamino]-phenyl}-methanesulfonamide]	significant inhibitory effect; also recorded: significant inhibition	significant inhibitory effect
COc1cc(F)ccc1-c1ccnc(Nc2cccc(CS(N)(=O)=O)c2)n1 [Compound 5, {3-[4-(4-Fluoro-2-methoxy-phenyl)-pyrimidin-2-ylamino]-phenyl}-methanesulfonamide]	significant inhibitory effect; also recorded: significant inhibition	significant inhibitory effect
COc1ccccc1-c1ccnc(Nc2cccc(CS(=O)(=O)NC3CC3)c2)n1 [Compound 6, N-Cyclopropyl-C-{3-[4-(2-methoxy-phenyl)-pyrimidin-2-ylamino]-phenyl}-methanesulfonamide]	significant inhibitory effect; also recorded: significant inhibition	significant inhibitory effect
COc1ccccc1-c1ccnc(Nc2cccc(CS(=O)(=O)N(C)CCO)c2)n1 [Compound 8, N-(2-Hydroxy-ethyl)-C-{3-[4-(2-methoxy-phenyl)-pyrimidin-2-ylamino]-phenyl}-N-methyl-methanesulfonamide]	significant inhibitory effect; also recorded: significant inhibition	significant inhibitory effect
COc1ccccc1-c1ccnc(Nc2cccc(CS(=O)(=O)CCO)c2)n1 [Compound 9, 2-{3-[4-(2-Methoxy-phenyl)-pyrimidin-2-ylamino]-phenylmethanesulfonyl}-ethanol]	significant inhibitory effect; also recorded: significant inhibition	significant inhibitory effect
